From patent publication US8722863B2, “Solid state forms of fidaxomycin and processes for preparation thereof” (Teva Pharmaceutical Works Ltd., priority 2012, dated 2014)

How the values were obtained:
[1] = stability under extreme conditions; format: physicochemical
Text: As discussed above, Form C of Fidaxomycin has advantageous properties. In particular, Form C of Fidaxomycin of the present invention can be reproduced in a high quality, i.e., chemical and polymorphical purity. The X-ray powder diffraction pattern of Form C is obtained in high crystallinity, as indicated by a high resolution PXRD pattern with relatively sharp, defined peaks. In addition, Form C is stable under extreme conditions.

[2] = hygroscopicity test according to the European pharmacopeia 5.11; format: physicochemical; conditions: Ph. Eur. chapter 5.11 hygroscopicity test
Text: As used herein and unless indicated otherwise, the term “non-hygroscopic” in relation to crystalline Fidaxomycin refers to less than 0.5%, and preferably less than 0.2% (w/w) absorption of water, for example atmospheric water, by the crystalline Fidaxomycin, as determined according to Ph. Eur. chapter 5.11 (“Hygroscopicity”).
As discussed above, Fidaxomycin Form Z1 has advantageous properties. In particular, the crystalline Fidaxomycin Form Z1 of the present invention is non-hygroscopic. When performing the hygroscopicity test according to the European pharmacopeia 5.11, the mass increase of Form Z1 was below about 0.2%. The advantageous of form Z1 as non-hygroscopic material provides better processing of Fidaxomycin in formulation. e.g., being less sticky and stable following granulation procedure.

[3] = stability in formulations; format: physicochemical; conditions: retains the anhydrous polymorph
Text: The ability to retain the anhydrous polymorph provides an opportunity to improve the performance characteristic in formulation e.g. dissolution profile and bioavailability.

Clostridium difficile = conditions: cited from earlier work

SMILES: CCc1c(Cl)c(O)c(Cl)c(O)c1C(=O)O[C@H]1[C@H](O)[C@H](OC)[C@H](OC/C2=C\C=C\C[C@H](O)/C(C)=C/[C@H](CC)[C@@H](O[C@@H]3OC(C)(C)[C@@H](OC(=O)C(C)C)[C@H](O)[C@@H]3O)/C(C)=C/C(C)=C/C[C@@H]([C@@H](C)O)OC2=O)O[C@@H]1C [Form C]
- stability under extreme conditions [1]: stable

SMILES: CCc1c(Cl)c(O)c(Cl)c(O)c1C(=O)O[C@H]1[C@H](O)[C@H](OC)[C@H](OC/C2=C\C=C\C[C@H](O)/C(C)=C/[C@H](CC)[C@@H](O[C@@H]3OC(C)(C)[C@@H](OC(=O)C(C)C)[C@H](O)[C@@H]3O)/C(C)=C/C(C)=C/C[C@@H]([C@@H](C)O)OC2=O)O[C@@H]1C [Form Z1]
- mass increase (hygroscopicity) [2]: below 0.2%
- stability in formulations [3]: excellent stability

SMILES: CCc1c(Cl)c(O)c(Cl)c(O)c1C(=O)O[C@H]1[C@H](O)[C@H](OC)[C@H](OC/C2=C\C=C\C[C@H](O)/C(C)=C/[C@H](CC)[C@@H](O[C@@H]3OC(C)(C)[C@@H](OC(=O)C(C)C)[C@H](O)[C@@H]3O)/C(C)=C/C(C)=C/C[C@@H]([C@@H](C)O)OC2=O)O[C@@H]1C [Fidaxomycin, 3-(((6-Deoxy-4-O-(3,5-dichloro-2-ethyl-4,6-dihydroxybenzoyl)-2-O-methyl-β-D-mannopyranosyl)oxy)-methyl)-12(R)-[(6-deoxy-5-C-methyl-4-O-(2-methyl-1-oxopropyl)-b-D-lyxo-hexopyranosyl)oxy]-11(S)-ethyl-8(S)-hydroxy-18(S)-(1(R)-hydroxyethyl)-9,13,15-trimethyloxacyclooctadeca-3,5,9,13,15-pentaene-2-one]
- activity against Clostridium difficile (Clostridium difficile): shows activity
